Experimental data: ChEMBL document CHEMBL1201862, “PubChem BioAssay data set” (2004)
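Test compounds were applied to cells in 96-well plates for 48 hours at 5 doses. GI50 is the concentration that inhibits growth by half.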 Calls of active or inactive are those of the source. No stated cut-off is given here; in the data, active = GI50 up to about 1.1 µM and inactive = higher.

Tests used:
Experiment in all cases: inhibition of tumour cell growth, NCI panel, 48 h
[1] = system: HOP-92
[2] = system: OVCAR-5
[3] = system: Malme-3M
[4] = system: TK-10
[5] = system: EKVX
[6] = system: NCI-H23
[7] = system: K562
[8] = system: SK-MEL-2
[9] = system: OVCAR-8
[10] = system: SNB-19
[11] = system: NCI-H460
[12] = system: HT-29
[13] = system: SW-620
[14] = system: HCC 2998
[15] = system: COLO 205
[16] = system: U-251
[17] = system: SK-MEL-28
[18] = system: RPMI-8226

| SMILES | GI50 [1] | GI50 [2] | GI50 [3] | GI50 [4] | GI50 [5] | GI50 [6] | GI50 [7] | GI50 [8] | GI50 [9] | GI50 [10] | GI50 [11] | GI50 [12] | GI50 [13] | GI50 [14] | GI50 [15] | GI50 [16] | GI50 [17] | GI50 [18] |
| --- | --- | --- | --- | --- | --- | --- | --- | --- | --- | --- | --- | --- | --- | --- | --- | --- | --- | --- |
| CN(C)CCNC(=O)c1cccc2ccc(-c3ccc(-c4ccccc4)cc3)nc12 | 3.02 µM (inactive) | 3.92 µM (inactive) | 1.97 µM (inactive) | 4.48 µM (inactive) | 8.17 µM (inactive) | 5.69 µM (inactive) | 2.13 µM (inactive) | 18.3 µM (inactive) | 2.56 µM (inactive) | 11.4 µM (inactive) | 1.61 µM (inactive) | 1.75 µM (inactive) | 2.11 µM (inactive) | 1.83 µM (inactive) | 1.6 µM (inactive) | 2.14 µM (inactive) | 1.76 µM (inactive) |  |
| CCN(CC)c1ccc(/N=C2/C=CC(=O)c3ncccc32)c(C)c1 | 6.75 µM (inactive) | 12 µM (inactive) | 3.82 µM (inactive) | 16.3 µM (inactive) | 16.6 µM (inactive) | 5.94 µM (inactive) | 2.45 µM (inactive) | 15.1 µM (inactive) | 3.42 µM (inactive) | 16.1 µM (inactive) | 6.43 µM (inactive) | 15.1 µM (inactive) | 2.53 µM (inactive) | 11.7 µM (inactive) | 2.18 µM (inactive) | 6.92 µM (inactive) | 11.8 µM (inactive) | 2.93 µM (inactive) |
| C/C(CCN(C)C)=N/O | 9.44 µM (inactive) | 18.7 µM (inactive) |  | 7.73 µM (inactive) | 1.55 µM (inactive) | 8.32 µM (inactive) | 0.292 µM (active) | 16.5 µM (inactive) | 0.826 µM (active) | 35.9 µM (inactive) | 1.64 µM (inactive) | 0.658 µM (active) | 2.71 µM (inactive) | 1.16 µM (inactive) | 0.597 µM (active) | 6.59 µM (inactive) | 7.13 µM (inactive) | 0.313 µM (active) |
| COC(=O)NC(=O)c1cn(CCCOC(=O)CCCCCCCCC(=O)OCCCn2cc(C(=O)NC(=O)OC)c(=O)[nH]c2=O)c(=O)[nH]c1=O | 36.7 µM (inactive) | > 100 µM (inactive) | > 100 µM (inactive) | 36.8 µM (inactive) | 55.2 µM (inactive) | 39.3 µM (inactive) | > 100 µM (inactive) | > 100 µM (inactive) | 23.9 µM (inactive) | 42.4 µM (inactive) | > 100 µM (inactive) | > 100 µM (inactive) | > 100 µM (inactive) | > 100 µM (inactive) |  |  | > 100 µM (inactive) | > 100 µM (inactive) |
| CC(=O)NNc1nc(C)c(C(=O)/C=C/c2ccc(Cl)cc2)s1 | > 100 µM (inactive) | > 100 µM (inactive) | > 100 µM (inactive) | > 100 µM (inactive) | 57.7 µM (inactive) | > 100 µM (inactive) | > 100 µM (inactive) | > 100 µM (inactive) | > 100 µM (inactive) | > 100 µM (inactive) | > 100 µM (inactive) | > 100 µM (inactive) | > 100 µM (inactive) | > 100 µM (inactive) | > 100 µM (inactive) | > 100 µM (inactive) | > 100 µM (inactive) | > 100 µM (inactive) |
| O=c1c2cc(Br)cc(Br)c2[nH]c(=S)n1-c1ccccc1 | 28.9 µM (inactive) | > 100 µM (inactive) | 82.4 µM (inactive) | 78.3 µM (inactive) | 58.1 µM (inactive) | 28.4 µM (inactive) | 32.4 µM (inactive) | > 100 µM (inactive) | 63 µM (inactive) | 60.8 µM (inactive) | > 100 µM (inactive) | > 100 µM (inactive) | 71.4 µM (inactive) | 92.5 µM (inactive) | > 100 µM (inactive) | 85.5 µM (inactive) | 50.7 µM (inactive) | 28.9 µM (inactive) |
| CCOC(=O)NC(=O)c1cn(CCCO)c(=O)[nH]c1=O | > 100 µM (inactive) | > 100 µM (inactive) | > 100 µM (inactive) | > 100 µM (inactive) | > 100 µM (inactive) | > 100 µM (inactive) | > 100 µM (inactive) | > 100 µM (inactive) | > 100 µM (inactive) | > 100 µM (inactive) | > 100 µM (inactive) | > 100 µM (inactive) | > 100 µM (inactive) | > 100 µM (inactive) | > 100 µM (inactive) | > 100 µM (inactive) | > 100 µM (inactive) | > 100 µM (inactive) |
| COc1cc(O)c2c(c1)C(=O)C=C(Cl)C2=O | > 100 µM (inactive) | > 100 µM (inactive) | > 100 µM (inactive) | > 100 µM (inactive) | > 100 µM (inactive) | > 100 µM (inactive) | > 100 µM (inactive) | > 100 µM (inactive) | 64.7 µM (inactive) | > 100 µM (inactive) |  | > 100 µM (inactive) | > 100 µM (inactive) | 83.6 µM (inactive) | > 100 µM (inactive) | > 100 µM (inactive) | > 100 µM (inactive) | > 100 µM (inactive) |
| CSc1nc(NC2OCC(OC(C)=O)C(OC(C)=O)C2OC(C)=O)c2c(OC(C)=O)c(C)c(=O)oc2n1 (stereo unspecified) | 71.6 µM (inactive) | > 100 µM (inactive) | > 100 µM (inactive) | > 100 µM (inactive) | > 100 µM (inactive) | > 100 µM (inactive) | > 100 µM (inactive) | > 100 µM (inactive) | > 100 µM (inactive) | > 100 µM (inactive) | > 100 µM (inactive) | > 100 µM (inactive) | > 100 µM (inactive) | > 100 µM (inactive) | > 100 µM (inactive) | > 100 µM (inactive) |  | > 100 µM (inactive) |
| COC(=O)C1C(=O)O[C@@H](c2ccc(OC)cc2)C1C(=O)OC (stereo partly specified) | > 100 µM (inactive) | > 100 µM (inactive) | > 100 µM (inactive) | > 100 µM (inactive) | > 100 µM (inactive) | > 100 µM (inactive) | > 100 µM (inactive) |  | > 100 µM (inactive) | > 100 µM (inactive) |  | > 100 µM (inactive) | > 100 µM (inactive) | > 100 µM (inactive) | > 100 µM (inactive) | > 100 µM (inactive) | > 100 µM (inactive) | > 100 µM (inactive) |
| CC1CCP(=O)(c2ccccc2)CC1 (stereo unspecified) |  | > 100 µM (inactive) | > 100 µM (inactive) | > 100 µM (inactive) | > 100 µM (inactive) | > 100 µM (inactive) | > 100 µM (inactive) | > 100 µM (inactive) | > 100 µM (inactive) | > 100 µM (inactive) | > 100 µM (inactive) | > 100 µM (inactive) | > 100 µM (inactive) | > 100 µM (inactive) | > 100 µM (inactive) | > 100 µM (inactive) | > 100 µM (inactive) | > 100 µM (inactive) |
| O=C(O)c1ccccc1NS(=O)(=O)c1ccc([N+](=O)[O-])cc1 |  | > 100 µM (inactive) | > 100 µM (inactive) | > 100 µM (inactive) | > 100 µM (inactive) | > 100 µM (inactive) | > 100 µM (inactive) | > 100 µM (inactive) | > 100 µM (inactive) | > 100 µM (inactive) | > 100 µM (inactive) | > 100 µM (inactive) | > 100 µM (inactive) | > 100 µM (inactive) | > 100 µM (inactive) | > 100 µM (inactive) | > 100 µM (inactive) | > 100 µM (inactive) |
